Here are results for three compounds from US20260060928A1, “TALC-FREE ACTIVE INGREDIENT COATING” (Hermes Pharma GmbH, priority 2022, published 2026).

≈ marks a conversion by molar mass, not a printed value. Structures can show the parent of a compound that is named as a salt. Some results are limits rather than exact numbers.

By solubility is commonly meant how much of the substance goes into solution per volume. Read a high solubility as much dissolved substance.

This data set in a line: Solubility of the active ingredient in water at room temperature. It counts as physicochemical. As to the method: Further, unless specified otherwise, any measured provisions such as densities, solubulities, or the like, are understood to be measured at room temperature (i.e., 20±5° C. as defined by the European Pharmacopoeia or by the WHO guidance ‘Guidelines for the Storage of Essential Medicines and Other Health Commodities’ (2003)).

For `COc1ccc2[nH]cc(CCNC(C)=O)c2c1` [melatonin], the solubility was found to be 2000 µg/mL (≈ 8.61 mM). In the case of `CNC[C@H](O)c1cccc(O)c1` [phenylephrine HCl], the solubility is at least 100000 µg/mL. Consider vitamin B12 [Vit. B12], for which the “solubility in water at room temperature” value is 12500 µg/mL.
